The numbers were not newly measured in US7970581B2, “Methods of calculating differences of binding affinities between congeneric pairs of ligands by way of a displaced solvent functional” (The Trustees of Columbia University in the City of New York, priority 2007, dated 2011), which cites them from elsewhere.

The target of the series is factor Xa (Homo sapiens, UniProt P00742). Conditions: experimental binding free energy of crystal structure ligand.
factor Xa, sequence (P00742 235-488 limits assumed): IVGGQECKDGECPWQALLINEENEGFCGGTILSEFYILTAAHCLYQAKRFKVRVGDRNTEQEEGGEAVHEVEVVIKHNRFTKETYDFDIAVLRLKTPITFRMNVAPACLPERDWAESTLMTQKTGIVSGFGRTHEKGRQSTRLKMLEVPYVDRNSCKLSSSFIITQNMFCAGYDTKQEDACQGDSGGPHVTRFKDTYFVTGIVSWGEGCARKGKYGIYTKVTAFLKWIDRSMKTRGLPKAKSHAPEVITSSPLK
factor Xa, sequence (P00742 41-179 partner limits assumed): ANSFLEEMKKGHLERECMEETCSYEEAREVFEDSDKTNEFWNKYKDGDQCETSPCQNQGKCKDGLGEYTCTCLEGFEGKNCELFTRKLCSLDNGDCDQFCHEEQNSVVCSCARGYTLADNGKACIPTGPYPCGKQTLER
For the compound `CCOC(=O)CO/N=C(\c1ccccn1)C1(c2ccc3c(c2)nc(CNc2ccc(C(=N)N)cc2)n3C)CC1` [1G2L:T87], the ΔGexp is -9.88 kcal/mol.

Regarding `Cc1nc2ccccc2n1Cc1ccc2c(c1)nc(CNc1ccc(C(=N)N)cc1)n2C` [1G2M:R11], the ΔGexp was -10.09 kcal/mol.

For `Cc1cc(C)cc(CNC(=O)c2cc3c(C)cccc3n2Cc2cccc(C(=N)N)c2)c1` [1LQD:CMI], the ΔGexp is -10.98 kcal/mol.

Regarding `CN1CCN(Cc2csc(C(=O)Nc3ccc(Cl)cc3C(=O)Nc3ccc(Cl)cc3)c2Cl)CC1` [1MQ5:XLC], the ΔGexp is -12.28 kcal/mol.

For `COc1cc(Cl)cc(C(=O)Nc2ccc(Cl)cn2)c1NC(=O)c1scc(C/[N+](C)=C2\NCCO2)c1Cl` [1MQ6:XLD], the ΔGexp is -15.22 kcal/mol.

`N=C(N)c1ccc(CN2CCN(S(=O)(=O)c3cc4ccc(Cl)cc4s3)CC2=O)cc1` [1NFY:RTR]: the ΔGexp is -12.12 kcal/mol.

For the compound `COc1ccc(C(=O)NCC2CCN(c3ccncc3)CC2)cc1OCCc1cc(Cl)cc(Cl)c1` [2BMG:I1H], the ΔGexp is -10.57 kcal/mol.

Consider `CC(C)N1CCC(NC(=O)c2cc3ccccc3n2-c2cc(-c3ccc(Cl)s3)on2)CC1` [2BOH:IIA], for which the ΔGexp is -11.63 kcal/mol.

With `COc1cccc(Cn2c(C(=O)NC3CCN(C(C)C)CC3)cc3ccccc32)c1` [2BQ7:IID], the ΔGexp is -9.62 kcal/mol.

In the case of `CC(C)N1CCC(NC(=O)c2cc3ccccc3n2CC(=O)Nc2ccc(Cl)cc2)CC1` [2BQW:IIE], the ΔGexp is -11.63 kcal/mol.
